For one experiment, the target named is mMC3R (Mus musculus, UniProt P33033). The experiment can be described thus: cAMP-based β-galactosidase reporter agonist assay in HEK293 cells, mMC3R. The conditions noted are these: for mMC3R fold difference: EC50 of substituted peptide divided by EC50 of NDP-MSH, potency loss.
For experiment [1], the target named is T1, mMC1R (Mus musculus, UniProt Q01727). The conditions noted are these: B16 murine melanoma cells; relative to α-MSH; cited from earlier work.
Experiment [2] deals with T1, mMC1R. The conditions noted are these: B16 murine melanoma cells; relative to α-MSH; cited from earlier work. The source holds these as a separate data set.
The next experiment relates to rMC3R. The conditions noted are these: HEK293 cells expressing the rMC3R; relative to α-MSH; cited from earlier work.
The target in experiment [3] is T1, mMC1R. As to the kind of experiment: cAMP-based β-galactosidase reporter agonist assay in HEK293 cells, mMC1R. To be noted: potency loss.
The next experiment has as its target mMC4R (Mus musculus, UniProt P56450). The experiment can be described thus: cAMP-based β-galactosidase reporter agonist assay in HEK293 cells, mMC4R. The conditions noted are these: EC50 of substituted peptide divided by EC50 of NDP-MSH; potency loss.
A further experiment has as its target mMC5R (Mus musculus, UniProt P41149). As to the kind of experiment: cAMP-based β-galactosidase reporter agonist assay in HEK293 cells, mMC5R. The conditions noted are these: EC50 of substituted peptide divided by EC50 of NDP-MSH; potency loss.
The mark [4] stands for this setting: EC50 of substituted peptide divided by EC50 of NDP-MSH.

The source of these data is PMC5596636 (ACS chemical neuroscience, 2016).

The structures appear in SMILES notation.

T1 sequence (Q01727 whole entry): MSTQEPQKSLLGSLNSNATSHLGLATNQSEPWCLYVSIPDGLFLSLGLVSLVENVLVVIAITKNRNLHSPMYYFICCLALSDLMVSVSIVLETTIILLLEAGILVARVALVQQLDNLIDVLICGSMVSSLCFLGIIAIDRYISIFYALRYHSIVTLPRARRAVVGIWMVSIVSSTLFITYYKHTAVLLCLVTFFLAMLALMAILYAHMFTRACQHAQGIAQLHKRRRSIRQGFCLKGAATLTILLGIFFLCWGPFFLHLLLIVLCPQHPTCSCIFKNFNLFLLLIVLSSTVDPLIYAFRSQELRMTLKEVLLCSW
mMC5R, sequence (P41149 whole entry): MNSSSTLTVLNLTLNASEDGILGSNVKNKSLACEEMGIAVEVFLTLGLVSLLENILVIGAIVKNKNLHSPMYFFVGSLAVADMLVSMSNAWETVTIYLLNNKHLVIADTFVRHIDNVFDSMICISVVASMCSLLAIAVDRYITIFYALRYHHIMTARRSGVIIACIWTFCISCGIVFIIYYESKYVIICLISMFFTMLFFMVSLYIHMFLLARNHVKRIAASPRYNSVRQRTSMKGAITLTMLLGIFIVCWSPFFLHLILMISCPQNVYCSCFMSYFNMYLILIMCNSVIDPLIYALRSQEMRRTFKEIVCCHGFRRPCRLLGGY
mMC4R, sequence (P56450 whole entry): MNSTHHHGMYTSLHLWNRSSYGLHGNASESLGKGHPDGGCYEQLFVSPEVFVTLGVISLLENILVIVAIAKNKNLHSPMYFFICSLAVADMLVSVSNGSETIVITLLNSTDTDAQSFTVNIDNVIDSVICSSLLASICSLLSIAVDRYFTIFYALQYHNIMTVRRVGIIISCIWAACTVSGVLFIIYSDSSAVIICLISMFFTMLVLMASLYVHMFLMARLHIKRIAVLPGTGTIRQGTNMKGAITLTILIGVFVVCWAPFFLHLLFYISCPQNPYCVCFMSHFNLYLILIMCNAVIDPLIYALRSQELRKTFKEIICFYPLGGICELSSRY
mMC3R, sequence (P33033 whole entry): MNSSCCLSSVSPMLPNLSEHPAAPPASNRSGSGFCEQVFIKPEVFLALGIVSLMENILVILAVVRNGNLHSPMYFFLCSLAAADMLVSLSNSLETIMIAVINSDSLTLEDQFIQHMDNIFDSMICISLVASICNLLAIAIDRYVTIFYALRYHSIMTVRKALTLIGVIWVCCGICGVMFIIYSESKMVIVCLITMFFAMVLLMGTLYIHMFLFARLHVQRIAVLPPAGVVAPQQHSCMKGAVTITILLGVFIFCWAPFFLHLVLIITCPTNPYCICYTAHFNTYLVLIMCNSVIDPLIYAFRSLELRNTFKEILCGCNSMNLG

Consider `CCCC[C@H](NC(=O)[C@H](CO)NC(=O)[C@H](Cc1ccc(O)cc1)NC(=O)[C@H](C)NC(C)=O)C(=O)N[C@@H](CCC(=O)O)C(=O)N[C@@H](Cc1c[nH]cn1)C(=O)N[C@H](Cc1ccccc1)C(=O)N[C@@H](CCCNC(=N)N)C(=O)N[C@@H](Cc1c[nH]c2ccccc12)C(=O)NCC(=O)N[C@@H](CCCCN)C(=O)N1CCC[C@H]1C(=O)N[C@H](C(N)=O)C(C)C` [[Ala^1]NDP-MSH, Ac-Ala-Tyr-Ser-Nle-Glu-His-DPhe-Arg-Trp-Gly-Lys-Pro-Val-NH2], for which a half-maximal effect at mMC3R (EC50) was put at 0.16 ± 0.017 nM.
As to `CCCC[C@H](NC(=O)[C@H](CO)NC(=O)[C@H](C)NC(=O)[C@H](CO)NC(C)=O)C(=O)N[C@@H](CCC(=O)O)C(=O)N[C@@H](Cc1c[nH]cn1)C(=O)N[C@H](Cc1ccccc1)C(=O)N[C@@H](CCCNC(=N)N)C(=O)N[C@@H](Cc1c[nH]c2ccccc12)C(=O)NCC(=O)N[C@@H](CCCCN)C(=O)N1CCC[C@H]1C(=O)N[C@H](C(N)=O)C(C)C` [[Ala^2]NDP-MSH, Ac-Ser-Ala-Ser-Nle-Glu-His-DPhe-Arg-Trp-Gly-Lys-Pro-Val-NH2], the EC50 on mMC3R stood at 0.22 ± 0.06 nM.
Consider `CSCC[C@H](NC(=O)[C@H](CO)NC(=O)[C@H](C)NC(=O)[C@H](CO)NC(C)=O)C(=O)N[C@@H](CCC(=O)O)C(=O)N[C@@H](Cc1c[nH]cn1)C(=O)N[C@@H](Cc1ccccc1)C(=O)N[C@@H](CCCNC(=N)N)C(=O)N[C@@H](Cc1c[nH]c2ccccc12)C(=O)NCC(=O)N[C@@H](CCCCN)C(=O)N1CCC[C@H]1C(=O)N[C@H](C(N)=O)C(C)C` [[Ala^2]α-MSH], for which the “fold decreased binding affinity at the mMC1R” value on mMC1R [1] is “equipotent”. The “fold decreased tyrosinase potency at the mMC1R” value at mMC1R [2] was “equipotent”. In the experiment with rMC3R, the “fold decreased binding affinity at the rMC3R” value is on record as 7 fold. At mMC1R [3] (EC50 of substituted peptide divided by EC50 of α-MSH), this compound returned a mMC1R fold difference of 7 fold. The compound further showed an EC50 at mMC3R of 6.42 ± 2.56 nM. Further, the “fold more potent at the mMC3R compared to α-MSH” value at mMC3R (increased potency relative to α-MSH) turned out to be 4 fold.
Turning to `CCCC[C@H](NC(=O)[C@H](C)NC(=O)[C@H](Cc1ccc(O)cc1)NC(=O)[C@H](CO)NC(C)=O)C(=O)N[C@@H](CCC(=O)O)C(=O)N[C@@H](Cc1c[nH]cn1)C(=O)N[C@H](Cc1ccccc1)C(=O)N[C@@H](CCCNC(=N)N)C(=O)N[C@@H](Cc1c[nH]c2ccccc12)C(=O)NCC(=O)N[C@@H](CCCCN)C(=O)N1CCC[C@H]1C(=O)N[C@H](C(N)=O)C(C)C` [[Ala^3]NDP-MSH, Ac-Ser-Tyr-Ala-Nle-Glu-His-DPhe-Arg-Trp-Gly-Lys-Pro-Val-NH2], the response on mMC3R was half-maximal at 0.34 ± 0.08 nM (EC50).
Consider `CC(=O)N[C@@H](CO)C(=O)N[C@@H](Cc1ccc(O)cc1)C(=O)N[C@@H](CO)C(=O)N[C@@H](C)C(=O)N[C@@H](CCC(=O)O)C(=O)N[C@@H](Cc1c[nH]cn1)C(=O)N[C@H](Cc1ccccc1)C(=O)N[C@@H](CCCNC(=N)N)C(=O)N[C@@H](Cc1c[nH]c2ccccc12)C(=O)NCC(=O)N[C@@H](CCCCN)C(=O)N1CCC[C@H]1C(=O)N[C@H](C(N)=O)C(C)C` [[Ala^4]NDP-MSH, Ac-Ser-Tyr-Ser-Ala-Glu-His-DPhe-Arg-Trp-Gly-Lys-Pro-Val-NH2], for which the mMC1R fold difference on mMC1R [3] (setting [4]) is on record as 5 fold. Moreover, on mMC3R, the midpoint of the response, the EC50, lay at 0.36 ± 0.04 nM and the mMC3R fold difference entry is “no differences”. For the same compound, the mMC4R fold difference result at mMC4R is “no differences”. Further, the mMC5R fold difference entry at mMC5R is reported as “no differences”.
At mMC1R [3] (setting [4]), `CCCC[C@H](NC(=O)[C@H](CO)NC(=O)[C@H](Cc1ccc(O)cc1)NC(=O)[C@H](CO)NC(C)=O)C(=O)N[C@@H](CCC(=O)O)C(=O)N[C@@H](Cc1c[nH]cn1)C(=O)N[C@@H](C)C(=O)N[C@@H](CCCNC(=N)N)C(=O)N[C@@H](Cc1c[nH]c2ccccc12)C(=O)NCC(=O)N[C@@H](CCCCN)C(=O)N1CCC[C@H]1C(=O)N[C@H](C(N)=O)C(C)C` [[Ala^7]NDP-MSH] had a mMC1R fold difference of 2350 fold. On mMC3R, this compound had an EC50 of 260 ± 64 nM and a mMC3R fold difference of 1080 fold. The compound also came in with a mMC4R fold difference at mMC4R of 2370 fold. The compound further had a mMC5R fold difference at mMC5R of 180 fold.
For `CCCC[C@H](NC(=O)[C@H](CO)NC(=O)[C@H](Cc1ccc(O)cc1)NC(=O)[C@H](CO)NC(C)=O)C(=O)N[C@@H](CCC(=O)O)C(=O)N[C@@H](Cc1c[nH]cn1)C(=O)N[C@H](Cc1ccccc1)C(=O)N[C@@H](CCCNC(=N)N)C(=O)N[C@@H](Cc1c[nH]c2ccccc12)C(=O)N[C@@H](C)C(=O)N[C@@H](CCCCN)C(=O)N1CCC[C@H]1C(=O)N[C@H](C(N)=O)C(C)C` [[Ala^10]NDP-MSH, Ac-Ser-Tyr-Ser-Nle-Glu-His-DPhe-Arg-Trp-Ala-Lys-Pro-Val-NH2], in that order: “unaltered”, 0.13 ± 0.06 nM, “unaltered”, “unaltered” and “unaltered”.
The compound `CSCC[C@H](NC(=O)[C@H](CO)NC(=O)[C@H](Cc1ccc(O)cc1)NC(=O)[C@H](CO)NC(C)=O)C(=O)N[C@@H](CCC(=O)O)C(=O)N[C@@H](Cc1c[nH]cn1)C(=O)N[C@@H](Cc1ccccc1)C(=O)N[C@@H](CCCNC(=N)N)C(=O)N[C@@H](Cc1c[nH]c2ccccc12)C(=O)N[C@@H](C)C(=O)N[C@@H](CCCCN)C(=O)N1CCC[C@H]1C(=O)N[C@H](C(N)=O)C(C)C` [[Ala^10]α-MSH] yielded a concentration for a half-maximal effect (EC50) at mMC3R of 33 ± 11 nM.
For `CCCC[C@H](NC(=O)[C@H](CO)NC(=O)[C@H](Cc1ccc(O)cc1)NC(=O)[C@H](CO)NC(C)=O)C(=O)N[C@@H](CCC(=O)O)C(=O)N[C@@H](Cc1c[nH]cn1)C(=O)N[C@H](Cc1ccccc1)C(=O)N[C@@H](CCCNC(=N)N)C(=O)N[C@@H](Cc1c[nH]c2ccccc12)C(=O)NCC(=O)N[C@@H](C)C(=O)N1CCC[C@H]1C(=O)N[C@H](C(N)=O)C(C)C` [[Ala^11]NDP-MSH, Ac-Ser-Tyr-Ser-Nle-Glu-His-DPhe-Arg-Trp-Gly-Ala-Pro-Val-NH2], the mMC1R fold difference result at mMC1R [3] (setting [4]) is “unaltered”. Further, at mMC3R, the response was half-maximal at 0.17 ± 0.02 nM (EC50) and the mMC3R fold difference entry is on record as “unaltered”. The mMC4R fold difference entry on mMC4R is recorded as “unaltered”. Further, the mMC5R fold difference entry at mMC5R is reported as “unaltered”.
On to `CSCC[C@H](NC(=O)[C@H](CO)NC(=O)[C@H](Cc1ccc(O)cc1)NC(=O)[C@H](CO)NC(C)=O)C(=O)N[C@@H](CCC(=O)O)C(=O)N[C@@H](Cc1c[nH]cn1)C(=O)N[C@@H](Cc1ccccc1)C(=O)N[C@@H](CCCNC(=N)N)C(=O)N[C@@H](Cc1c[nH]c2ccccc12)C(=O)NCC(=O)N[C@@H](C)C(=O)N1CCC[C@H]1C(=O)N[C@H](C(N)=O)C(C)C` [[Ala^11]α-MSH], for which, at mMC3R, a half-maximal effect (EC50) was put at 49 ± 33 nM.
`CCCC[C@H](NC(=O)[C@H](CO)NC(=O)[C@H](Cc1ccc(O)cc1)NC(=O)[C@H](CO)NC(C)=O)C(=O)N[C@@H](CCC(=O)O)C(=O)N[C@@H](Cc1c[nH]cn1)C(=O)N[C@H](Cc1ccccc1)C(=O)N[C@@H](CCCNC(=N)N)C(=O)N[C@@H](Cc1c[nH]c2ccccc12)C(=O)NCC(=O)N[C@@H](CCCCN)C(=O)N[C@@H](C)C(=O)N[C@H](C(N)=O)C(C)C` [[Ala^12]NDP-MSH, Ac-Ser-Tyr-Ser-Nle-Glu-His-DPhe-Arg-Trp-Gly-Lys-Ala-Val-NH2]: on mMC1R [3] (setting [4]), the mMC1R fold difference amounted to 4 fold. For the same compound, on mMC3R, the EC50 is 0.36 ± 0.06 nM. Moreover, on mMC4R, the mMC4R fold difference is recorded as 5 fold.
In the case of `CSCC[C@H](NC(=O)[C@H](CO)NC(=O)[C@H](Cc1ccc(O)cc1)NC(=O)[C@H](CO)NC(C)=O)C(=O)N[C@@H](CCC(=O)O)C(=O)N[C@@H](Cc1c[nH]cn1)C(=O)N[C@@H](Cc1ccccc1)C(=O)N[C@@H](CCCNC(=N)N)C(=O)N[C@@H](Cc1c[nH]c2ccccc12)C(=O)NCC(=O)N[C@@H](CCCCN)C(=O)N[C@@H](C)C(=O)N[C@H](C(N)=O)C(C)C` [[Ala^12]α-MSH], the “fold decreased binding affinity at the mMC1R” value at mMC1R [1] is reported as 10 fold. Moreover, the EC50 on mMC3R was determined as 43 ± 14 nM.
With `CCCC[C@H](NC(=O)[C@H](CO)NC(=O)[C@H](Cc1ccc(O)cc1)NC(=O)[C@H](CO)NC(C)=O)C(=O)N[C@@H](CCC(=O)O)C(=O)N[C@@H](Cc1c[nH]cn1)C(=O)N[C@H](Cc1ccccc1)C(=O)N[C@@H](CCCNC(=N)N)C(=O)N[C@@H](Cc1c[nH]c2ccccc12)C(=O)NCC(=O)N[C@@H](CCCCN)C(=O)N1CCC[C@H]1C(=O)N[C@@H](C)C(N)=O` [[Ala^13]NDP-MSH, Ac-Ser-Tyr-Ser-Nle-Glu-His-DPhe-Arg-Trp-Gly-Lys-Pro-Ala-NH2], the mMC1R fold difference entry on mMC1R [3] (setting [4]) was “unaltered”. Further, on mMC3R, a half-maximal effect (EC50) was put at 0.3 ± 0.06 nM and the mMC3R fold difference result is “unaltered”. For the same compound, the mMC4R fold difference entry on mMC4R is on record as “unaltered”. The mMC5R fold difference entry on mMC5R is “unaltered”.
Regarding `CSCC[C@H](NC(=O)[C@H](CO)NC(=O)[C@H](Cc1ccc(O)cc1)NC(=O)[C@H](CO)NC(C)=O)C(=O)N[C@@H](CCC(=O)O)C(=O)N[C@@H](Cc1c[nH]cn1)C(=O)N[C@@H](Cc1ccccc1)C(=O)N[C@@H](CCCNC(=N)N)C(=O)N[C@@H](Cc1c[nH]c2ccccc12)C(=O)NCC(=O)N[C@@H](CCCCN)C(=O)N1CCC[C@H]1C(=O)N[C@@H](C)C(N)=O` [[Ala^13]α-MSH], the EC50 at mMC3R came to 42 ± 26 nM.

In general, EC50 refers to the concentration giving half of the maximal effect.
